Experimental data reported in article PMC11783063, “Design, synthesis, and apoptotic antiproliferative action of new benzimidazole/1,2,3-triazole hybrids as EGFR inhibitors” (Frontiers in Chemistry, 2025).

What was measured:
caspase-3 = assay: Caspase-3 activation assay in MCF-7 cells; type: cell-based, human; details: for Caspase-3 Conc: compound at its IC50 concentration; for Caspase-3 Fold change: vs untreated control
Source text: (§1) Cells experience apoptosis in reaction to specific signaling cues, resulting in significant modifications. […] They decompose vital cellular components, including nuclear proteins, such as DNA repair enzymes and structural proteins within the cytoskeleton, essential for optimal cellular function.
(§2) Supplementary Appendix A provides more details.
Allow all reagents to reach room temperature before use. Gently mix all liquid reagents prior to use. Determine the number of 8-well strips needed for the assay. Insert these in the frame(s) for current use. Add 100 μl of the Standard Diluent Buffer to the zero standard wells. Well(s) reserved for chromogen blank should be left empty. Add 100 μl of standards and controls or diluted samples to the appropriate microtiter wells. The sample dilution chosen should be optimized for each experimental system. Tap gently on the side of plate to mix. Cover wells with plate cover and incubate for 2 hours at room temperature. Thoroughly aspirate or decant solution from wells and discard the liquid, Wash wells 4 times. […] Tap gently on the side of the plate to mix. Cover plate with plate cover and incubate for 1 hour at room temperature. Thoroughly aspirate or decant solution from wells and discard the liquid, Wash wells 4 times. Add 100 μl Anti-Rabbit IgG HRP Working Solution to each well except the chromogen blank(s). Prepare the working dilution as described in Preparing IgG HRP. Cover wells with the plate cover and incubate for 30 minutes at room temperature. Thoroughly aspirate or decant solution from wells and discard the liquid. Wash wells 4 times. Add 100 μl of Stabilized Chromogen to each well. The liquid in the wells will begin to turn blue. Incubate for 30 minutes at room temperature and in the dark. The incubation time for chromogen substrate is often determined by the microtiter plate reader used. […] The O.D. values should be monitored, and the substrate reaction stopped before the O.D. of the positive wells exceeds the limits of the instrument. The O.D. values at 450 nm can only be read after the Stop Solution has been added to each well. […] Add 100 μl of Stop Solution to each well. Tap side of plate gently to mix. The solution in the wells should change from blue to yellow. Read the absorbance of each well at 450 nm having blanked the plate reader against a chromogen blank composed of 100 μl each of Stabilized Chromogen and Stop Solution. Read the plate within 2 hours after adding the Stop Solution. Use a curve fitting software to generate the standard curve. […] Read the concentrations for unknown samples and controls from the standard curve. Multiply value(s) obtained for sample(s) by the appropriate dilution factor to correct for the dilution in step 3.

[1] = Cell viability assay (MTT) on MCF-10A normal cells; details: human, MCF-10A normal mammary gland epithelial cells
Experimental: (§5) The medium in which cells were propagated contained Dulbecco's modified Eagle's medium (DMEM)/ Ham's F-12 medium (1:1) supplemented with epidermal growth factor (20 ng/mL), hydrocortisone (500 ng/mL), insulin (10 μg/mL), 2 mM glutamine and 10% foetal calf serum. After every 2-3 days, the cells were passed using trypsin ethylenediamine tetra acetic acid (EDTA). The cells were seeded at a density of 10^4 cells mL^-1 in flat-bottomed culture plates containing 96 wells each. After 24 h, medium was removed from the plates and the compounds in (in 0.1% DMSO) were added (in 200 μL medium to yield a final concentration of 0.1% v/v) to the wells of plates. A single compound was designated with four wells followed by incubation of plates for 96h at 37°C. After incubation, medium was removed completely from the plates followed by addition of MTT (0.4 mg/mL in medium) to each well and subsequent incubation of plates for 3h. MTT (along with the medium) was removed and DMSO (150μL) was added to each well of the culture plates, followed by vortexing and subsequent measurement of absorbance (at 540 nm) using microplate reader.

[2] = test system: MCF-10A normal human mammary gland epithelial cell line; assay: Cell viability assay (MTT) on MCF-10A normal cells; details: dose of 50 μM
Experimental: as §5

[3] = test system: Panc-1 (pancreatic cancer cell line); assay: Antiproliferative assay, Panc-1; type: cell-based, human; details: Homo sapiens, PANC-1; read-out: Antiproliferative activity IC50 ± SEM, Panc-1
Source text: (§3) Refer to Supplementary Appendix A for more information.
(§4) DMSO (0.1%) was used as control.

caspase-8 = assay: Caspase-8 activation assay in MCF-7 cells; type: cell-based, human; details: for Caspase-8 Conc: compound at its IC50 concentration; for Caspase-8 Fold change: vs untreated control
Experimental: as §1, §2
The absorbance of each microwell was read on a spectrophotometer at 450 nm. A standard curve is prepared from 7human Caspase-8 standard dilutions and human Caspase-8 concentration determined.

Bax = Bax activation assay in MCF-7 cells; type: cell-based, human; details: for Bax Conc: compound at its IC50; for Bax Fold change: vs untreated control
Experimental: The current study supplied compounds 6i and 10e to breast (MCF-7) cancer cell lines at their respective IC50 values. This led to a notable elevation of pro-apoptotic Bax expression, with a fold increase of 34 for compound 6i and 36 for compound 10e.
Compounds 6i and 10e were assessed for their ability to activate caspase-3, caspase-8, and Bax, as well as to downregulate the anti-apoptotic protein Bcl2 in the MCF-7 breast cancer cell line ([Abdelbaset et al., 2019]). Supplementary Appendix A provides more details.
Bring all reagents, except the human Bax-α Standard, to room temperature for at least 30 minutes prior to opening. The human Bax-α Standard solution should not be left at room temperature for more than 10 minutes. All standards, controls and samples should be run in duplicate. Refer to the Assay Layout Sheet to determine the number of wells to be used and put any remaining wells with the desiccant back into the pouch and seal the ziploc. Store unused wells at 4 °C. Pipet 100 μL of Assay Buffer into the S0 (0 pg/mL standard) wells. Pipet 100 μL of Standards #1 through #6 into the appropriate wells. Pipet 100 μL of the Samples into the appropriate wells. Tap the plate gently to mix the contents. Seal the plate and incubate at room temperature on a plate shaker for 1 hour at ~500 rpm. Empty the contents of the wells and wash by adding 400 μL of wash solution to every well. Repeat the wash 4 more times for a total of 5 washes. After the final wash, empty or aspirate the wells and firmly tap the plate on a lint free paper towel to remove any remaining wash buffer. Pipet 100 μL of yellow Antibody into each well, except the Blank. Seal the plate and incubate at room temperature on a plate shaker for 1 hour at ~500 rpm. Empty the contents of the wells and wash by adding 400 μL of wash solution to every well. Repeat the wash 4 more times for a total of 5 washes. After the final wash, empty or aspirate the wells and firmly tap the plate on a lint free paper towel to remove any remaining wash buffer. Add 100 μL of blue Conjugate to each well, except the Blank. Seal the plate and incubate at room temperature on a plate shaker for 30 minutes at ~500 rpm. Empty the contents of the wells and wash by adding 400 μL of wash solution to every well. Repeat the wash 4 more times for a total of 5 washes. After the final wash, empty or aspirate the wells and firmly tap the plate on a lint free paper towel to remove any remaining wash buffer. Pipet 100 μL of Substrate Solution into each well. Incubate for 30 minutes at room temperature on a plate shaker at ~500 rpm. Pipet 100 μL Stop Solution to each well. Blank the plate reader against the Blank wells, read the optical density at 450 nm. Calculate the average net Optical Density (OD) bound for each standard and sample by subtracting the average Blank OD from the average OD for each standard and sample. Using linear graph paper, plot the Average Net OD for each standard versus Bax concentration in each standard. Approximate a straight line through the points. The concentration of Bax in the unknowns can be determined by interpolation.

[4] = test system: HT-29 (colon cancer cell line); assay: Antiproliferative assay, HT-29; type: cell-based, human; details: Homo sapiens, read-out: Antiproliferative activity IC50 ± SEM, HT-29
Source text: as §3, §4

EGFR = EGFR (Homo sapiens, UniProt P00533); assay: EGFR-TK inhibitory assay
EGFR, sequence (P00533 669-1210): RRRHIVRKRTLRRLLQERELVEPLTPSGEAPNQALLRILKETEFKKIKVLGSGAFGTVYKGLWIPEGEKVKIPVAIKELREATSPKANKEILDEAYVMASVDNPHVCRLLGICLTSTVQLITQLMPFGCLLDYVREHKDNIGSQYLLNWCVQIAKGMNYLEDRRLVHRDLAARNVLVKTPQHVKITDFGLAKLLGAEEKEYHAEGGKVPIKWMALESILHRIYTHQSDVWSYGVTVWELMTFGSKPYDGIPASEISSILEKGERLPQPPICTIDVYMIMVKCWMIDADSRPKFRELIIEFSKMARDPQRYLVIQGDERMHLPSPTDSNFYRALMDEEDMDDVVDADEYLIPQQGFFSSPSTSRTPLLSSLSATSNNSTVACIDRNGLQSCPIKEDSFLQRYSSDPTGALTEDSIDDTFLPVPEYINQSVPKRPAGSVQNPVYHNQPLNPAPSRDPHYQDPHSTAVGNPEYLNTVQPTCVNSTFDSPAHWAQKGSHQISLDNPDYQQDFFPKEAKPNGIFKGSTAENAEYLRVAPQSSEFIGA
Experimental: To record autophosphorylation level, EGFR kinase assay was carried out on the basis of DELFIA/Time-Resolved Fluorometry. […] Each compound (10 µL) was incubated with recombinant enzyme (10 µL, 5 ng for EGFR, 1:80 dilution in 100 mM HEPES) for 10 min at 25 °C, subsequent to the addition of 5X buffer (10 µL, containing 2 mM MnCl2, 100 µM Na3VO4, 20 mM HEPES and 1 mM DTT) and ATP-MgCl2 (20 µL, containing 0.1 mM ATP and 50 mM MgCl2) and incubation for 1h. The negative and positive controls were included in each plate by the incubation of enzyme either with or without ATP-MgCl2. The liquid was removed after incubation and the plates were washed thrice using wash buffer. Europium-tagged antiphosphotyrosine antibody (75 µL, 400 ng) was added to each well followed by incubation of 1h and then washing of the plates using buffer. […] The autophosphorylation percentage inhibition by compounds was calculated using the following equation:

[5] = test system: MCF-7 (breast cancer cell line); assay: Antiproliferative assay, MCF-7; type: cell-based, human; details: Homo sapiens, MCF7; read-out: Antiproliferative activity IC50 ± SEM, MCF-7
Source text: as §3, §4

Structure (SMILES)	Caspase-3 Conc (caspase-3) [pg/mL]	Caspase-3 Fold change (caspase-3)	viability at 4 days, 50 µM [1] [%]	Impact on non-tumor cells MCF-10A [2]	IC50 [3] [nM]	Caspase-8 Conc (caspase-8) [ng/mL]	Caspase-8 Fold change (caspase-8)	Bax Conc (Bax) [pg/mL]	Bax Fold change (Bax)	IC50 [4] [nM]	IC50 (EGFR) [nM]	IC50 [5] [nM]
O=[N+]([O-])c1cccc(-n2cc(Cn3c(SCc4ccccc4)nc4ccccc43)nn2)c1 [10e]	778 ± 6	12	90	no impact	26 ± 2	1.75 ± 0.15	19	325 ± 3	36	25 ± 2	73 ± 4	24 ± 2
NS(=O)(=O)c1ccc(-n2cc(CSc3nc4ccccc4[nH]3)nn2)cc1 [6i, 4-(4-(((1H-benzimidazol-2-yl)thio)methyl)-1H-1,2,3-triazol-1-yl)benzene-sulfonamide]	590 ± 5	9	90	no impact	28 ± 2	1.60 ± 0.20	18	310 ± 3	34	30 ± 2	78 ± 5	28 ± 2
